Experiments:
[1] = target: T1, MEK1 (Homo sapiens, UniProt Q02750); experiment: MEK1 kinase cascade assay (ADP-Glo), inhibition of MEK1 kinase activity; assay type: biochemical; conditions: 25 nM BRAF, 6.25 nM MEK1, 0.5 μM ERK, 1 mM ATP; 20 min preincubation, 1 hr at 25° C.; read-out: BRAF ADP Glo kinase assay V3 (IC50)
T1 construct: purchased SignalChem M02-14H
Procedure, shortened: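 Cascade format with ADP-Glo read-out: BRAF (25 nM) and compound, 1% DMSO, 20 mins at 25° C, then MEK1 6.25 nM, ERK1 0.5 μM, ATP 1 mM for 1 hr at 25° C in HEPES pH 7.5 buffer with MgCl2, CHAPS and DTT. Percent inhibition, scaled between DMSO and 1 μM Trametinib, was fit by 4-parameter logistic to give IC50 (2 replicate wells).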

[2] = system: BRAF-MEK1; experiment: BRAF-MEK TR-FRET assay, stabilization of MEK1 and BRAF interaction; assay type: binding; conditions: 4 nM BRAF, 10 nM MEK, 100 μM ATP; 1 hr at 25° C.; read-out: BRAF-MEK TR-FRET Assay (EC50, fold stabilization)
Procedure, shortened: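 Read-out is fold stabilization (treated FRET ratio/DMSO, Em 665/620 nm), fit 4-parameter for EC50 from 2 replicates. Compounds sat with 4 nM GST-BRAF and 10 nM in-house His-MEK1 1 h at 25° C (Tris pH 7.5, MgCl2, 100 μM ATP), then detection antibodies 1 h.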

[3] = system: p-ERK1/2 in HCT116 cells; experiment: AlphaLISA p-ERK assay, cellular inhibition of ERK phosphorylation in HCT116 cells; assay type: cell-based; conditions: Homo sapiens, HCT-116, 2 hours treatment, PMA stimulation 30 mins
Procedure: Cell culture: HCTI 16, HT-29, and NCI-H292 cells were acquired from American Type Culture Collection (ATCC). HCT116 and HT-29 cells were maintained in ATCC-formulated McCoy's 5a Medium Modified supplemented with 10% fetal bovine serum, NCI-H292 cells were cultured in ATCC formulated RPMI-1640 supplemented with 10% fetal bovine serum. All cells were maintained at 37° C., 5% CO2.
Efficacy of exemplary compounds in cellular inhibition of ERK phosphorylation: Phosphorylation status of ERK1/2 (p-ERK) was used as a readout for inhibition of BRAF-MEK pathway. p-ERK was detected using an immunoassay for quantitative detection of phospho-ERK 1/2 (phosphorylated on Thr202/Tyr204 in ERK1, or Thr185/Tyr187 in ERK2), such as the AlphaLISA® SureFire® Ultra™ p-ERK1/2 (Thr202/Tyr204) kit (Perkin Elmer). HCT116 cells were plated at 10,000 cells per well in 384-well TC-treated plates (Coming). Cells were plated for 24 hours, the medium was then aspirated and cells were treated with vehicle (DMSO) or test compounds (0.1% DMSO in final volume) prepared in serum free, phenol red free medium for 2 hours. Following treatment, cells were stimulated with PMA (1.25 μM/well) for 30 mins after which the medium was aspirated, and the cells were lysed for 10 mins with 1× lysis buffer supplemented with Halt Protease and Phosphatase Inhibitor Cocktail (Thermo Fisher). The lysate was transferred to a 384 well Alpha-plate (PerkinElmer) and incubated for 1 hour with acceptor bead mix followed by 1 hour incubation with donor bead mix. After incubation, the plate was read on a Cytation5 microplate reader (Agilent). % inhibition as a function of compound concentration from 3 replicate wells was fit with a 4-parameter logistic curve using GraphPad Prism or CDD Vault to derive IC50 values.
In this table, for the BRAF ADP Glo kinase assay, “A” indicates IC50 of less than 5 nM; “B” indicates IC50 of between 5 nM to 50 nM; and “C” indicates IC50 of between 50 nM to 500 nM. “D” indicates IC50 of greater than 500 nM. For the BRAF-MEK TR-FRET assay, “A” indicates EC50 of less than 50 nM; “B” indicates EC50 of between 50 nM to 200 nM; and “C” indicates EC50 of between 200 nM to 1 μM. “D′” indicates EC50 of greater than 1 μM. For the AlphaLisa P-ERK assay, “A” indicates IC50 of less than 1 nM; “B” indicates IC50 of between 1 nM to 10 nM; and “C” indicates IC50 of between 10 nM to 100 nM. “D” indicates IC50 of greater than 100 nM. For the cell viability assay, “A” indicates IC50 of less than 1 nM; “B” indicates IC50 of between 1 nM to 10 nM; and “C” indicates IC50 of between 10 nM to 100 nM. “D” indicates IC50 of greater than 100 nM.

[4] = system: NCI-H292 cells; experiment: Cell viability assay (CellTiter-Glo), NCI-H292; assay type: cell-based; conditions: Homo sapiens, 72 hrs, read-out: Cell Viability Assay: IC50 Determination NCI-H292
Procedure, shortened: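 Cells seeded at 2,000 per well in RPMI-1640 with 10% FBS, treated 24 h later with compound (0.1% DMSO) for 72 h. Viability read by CellTiter-Glo luminescence; IC50 from 4-parameter logistic fit of % inhibition over 3 replicate wells.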

T1 sequence (Q02750 whole entry): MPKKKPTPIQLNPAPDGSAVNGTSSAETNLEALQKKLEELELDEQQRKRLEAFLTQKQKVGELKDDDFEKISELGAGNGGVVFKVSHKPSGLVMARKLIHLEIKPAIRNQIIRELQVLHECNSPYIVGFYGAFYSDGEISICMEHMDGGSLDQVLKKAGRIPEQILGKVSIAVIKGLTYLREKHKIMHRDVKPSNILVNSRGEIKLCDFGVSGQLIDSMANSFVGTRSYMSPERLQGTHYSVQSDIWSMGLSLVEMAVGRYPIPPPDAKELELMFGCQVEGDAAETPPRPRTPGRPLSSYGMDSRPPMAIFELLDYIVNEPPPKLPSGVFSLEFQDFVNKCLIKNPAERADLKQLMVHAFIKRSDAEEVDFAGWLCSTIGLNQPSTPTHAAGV
T1 sequence (P15056 445-723 partner limits assumed): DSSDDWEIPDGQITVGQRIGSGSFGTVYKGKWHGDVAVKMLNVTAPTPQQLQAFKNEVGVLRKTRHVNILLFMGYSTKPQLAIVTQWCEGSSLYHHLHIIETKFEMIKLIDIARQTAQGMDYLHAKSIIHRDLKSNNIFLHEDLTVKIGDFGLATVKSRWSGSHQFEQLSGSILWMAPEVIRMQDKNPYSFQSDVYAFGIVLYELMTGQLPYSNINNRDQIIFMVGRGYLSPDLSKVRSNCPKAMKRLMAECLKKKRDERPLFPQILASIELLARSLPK

SMILES | IC50 [1] [nM] | EC50 [2] [nM] | IC50 [3] [nM] | IC50 [4] [nM]
CNS(=O)(=O)Nc1cccc(CN2Cc3ccc(OC(=O)N(C)C)c(F)c3OC2=O)c1F [Compound 131, 8-fluoro-3-(2-fluoro-3-((N-methylsulfamoyl)amino)benzyl)-2-oxo-3,4-dihydro-2H-benzo[e][1,3]oxazin-7-yl dimethylcarbamate] | < 5 | 50 to 200 | 1 to 10 | 1 to 10
CNS(=O)(=O)Nc1cccc(CN2C(=O)Oc3c(ccc(Oc4cccnn4)c3F)[C@@H]2C)c1F (single isomer, unassigned) [Compound 35] | < 5 | 50 to 200 | 10 to 100 | 10 to 100
CNS(=O)(=O)Nc1cccc(CN2C(=O)Oc3cc(Oc4cccnn4)ccc3[C@@H]2C)c1F (single isomer, unassigned) [Compound 72, (R)-3-({2-fluoro-3-(methylsulfamoyl)amino]phenyl}methyl)-4-methyl-7-(pyridazin-3-yloxy)-3,4-dihydro-2H-1,3-benzoxazin-2-one or (S)-3-({2-fluoro-3-(methylsulfamoyl)amino]phenyl}methyl)-4-methyl-7-(pyridazin-3-yloxy)-3,4-dihydro-2H-1,3-benzoxazin-2-one] | 5 to 50 | 50 to 200 | 1 to 10 | 1 to 10
CNS(=O)(=O)Nc1cccc(CN2C(=O)Oc3cc(Oc4cccnn4)c(F)cc3C23COC3)c1F [Compound 58, 6-fluoro-3-({2-fluoro-3-[(methylsulfamoyl)amino]phenyl}methyl)-7-(pyridazin-3-yloxy)-2,3-dihydrospiro[1,3-benzoxazine-4,3′-oxetan]-2-one] | < 5 | < 50 | < 1 | < 1
[2H]C1([2H])c2ccc(Oc3cccnn3)cc2OC(=O)N1Cc1cccc(NS(=O)(=O)NC)c1F [Compound 52, 3-{[2-fluoro-3-(methylaminosulfonylamino)phenyl]methyl}-7-(3-pyridazinyloxy)(4,4-^2H2)-3,4-dihydro-2H-1,3-benzoxazin-2-one] | 5 to 50 | 50 to 200 | 1 to 10 | 1 to 10
CNS(=O)(=O)Nc1cccc(CN2C(=O)Oc3cc(Oc4cccnn4)c(F)cc3[C@H]2C)c1F (single isomer, unassigned) [Compound 67] | 5 to 50 | 200 to 1000 | 1 to 10 | 1 to 10
CNS(=O)(=O)Nc1cccc(CN2Cc3ccc(Oc4cccnn4)cc3OC2=O)c1F [Compound 105, 3-({2-fluoro-3-[(methylsulfamoyl)amino]phenyl}methyl)-7-(pyridazin-3-yloxy)-3,4-dihydro-2H-1,3-benzoxazin-2-one] | < 5 | < 50 | 1 to 10 | 1 to 10
CNS(=O)(=O)Nc1cccc(CN2C(=O)Oc3cc(Oc4cccnn4)ccc3[C@H]2C)c1F (single isomer, unassigned) [Compound 71] | 5 to 50 | 200 to 1000 | 10 to 100 | 1 to 10
CNS(=O)(=O)Nc1cccc(CN2C(=O)Oc3cc(Oc4cccnn4)ccc3C23COC3)c1F [Compound 81, 3-({2-fluoro-3-[(methylsulfamoyl)amino]phenyl}methyl)-7-(pyridazin-3-yloxy)-2,3-dihydrospiro[1,3-benzoxazine-4,3′-oxetan]-2-one] | < 5 | 50 to 200 | 1 to 10 | 1 to 10
CN(C)S(=O)(=O)Nc1cccc(CN2C(=O)Oc3c(ccc(Oc4cccnn4)c3F)C23COC3)c1F [Compound 40, 3-({3-[(dimethylsulfamoyl)amino]-2-fluorophenyl}methyl)-8-fluoro-7-(pyridazin-3-yloxy)-2,3-dihydrospiro[1,3-benzoxazine-4,3′-oxetan]-2-one] | 5 to 50 | 50 to 200 | 10 to 100 | 1 to 10
CN(C)S(=O)(=O)Nc1cccc(CN2C(=O)Oc3cc(Oc4cccnn4)ccc3C23COC3)c1F [Compound 64, 3-({3-[(dimethylsulfamoyl)amino]-2-fluorophenyl}methyl)-7-(pyridazin-3-yloxy)-2,3-dihydrospiro[1,3-benzoxazine-4,3′-oxetan]-2-one] | < 5 | 50 to 200 | 1 to 10 | 1 to 10
CNS(=O)(=O)Nc1cccc(CN2C(=O)Oc3cc(OC(=O)N(C)C)ccc3C23COC3)c1F [Compound 115, 3-({2-fluoro-3-[(methylsulfamoyl)amino]phenyl}methyl)-2-oxo-2,3-dihydrospiro[1,3-benzoxazine-4,3′-oxetan]-7-yl N,N-dimethylcarbamate] | < 5 | 50 to 200 | 1 to 10 | < 1

From patent publication US20260297105A1, “RAF-MEK PROTEIN COMPLEX MODULATORS AND METHODS OF USE THEREOF” (GANDEEVA THERAPEUTICS, INC., priority 2023, published 2026)
